Legend:
[1] = molecular target: T1, PLC δ1 (Homo sapiens, UniProt P51178); experiment: Phosphoinositide hydrolysis in vitro; format: biochemical; details: 25 μM; purified isozyme
T1 sequence (P51178 1-756): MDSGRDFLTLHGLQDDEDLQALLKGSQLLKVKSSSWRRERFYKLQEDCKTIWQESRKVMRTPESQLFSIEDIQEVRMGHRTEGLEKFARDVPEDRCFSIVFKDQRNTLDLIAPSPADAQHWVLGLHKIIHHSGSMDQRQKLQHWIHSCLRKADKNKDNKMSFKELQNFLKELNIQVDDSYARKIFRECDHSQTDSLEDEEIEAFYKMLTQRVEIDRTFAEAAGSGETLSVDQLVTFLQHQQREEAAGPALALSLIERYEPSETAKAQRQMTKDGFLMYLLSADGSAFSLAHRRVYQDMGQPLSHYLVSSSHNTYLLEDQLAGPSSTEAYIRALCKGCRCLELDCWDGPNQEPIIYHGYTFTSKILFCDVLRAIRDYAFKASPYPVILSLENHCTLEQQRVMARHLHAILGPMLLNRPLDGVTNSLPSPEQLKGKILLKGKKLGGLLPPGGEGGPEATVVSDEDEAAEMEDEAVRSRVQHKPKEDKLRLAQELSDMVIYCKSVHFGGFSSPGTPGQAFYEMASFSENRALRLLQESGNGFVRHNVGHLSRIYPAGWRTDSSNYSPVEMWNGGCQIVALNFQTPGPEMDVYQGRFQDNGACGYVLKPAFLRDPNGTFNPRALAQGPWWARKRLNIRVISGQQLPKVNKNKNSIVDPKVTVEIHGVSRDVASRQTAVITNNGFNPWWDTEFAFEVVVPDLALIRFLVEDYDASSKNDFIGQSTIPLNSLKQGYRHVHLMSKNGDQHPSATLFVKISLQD
Method: (§1) The hydrolyzing activity of PtdIns-4,5-P2 was measured on mixed phospholipid vesicles containing 120 μM phosphatidylethanolamine, 30 μM PtdIns-4,5-P2, and 1 μCi/ml [3H] PtdIns-4,5-P2. Purified PLC β2, substrates, and the chemicals (2.5, 5, 10, 20, and 25 μM of m-3M3FBS or of o-3M3FBS) were coincubated (A), 25 μM of m-3M3FBS or o-3M3FBS, and phospholipid substrates were mixed with purified PLC β3, γ1, 2, or δ1 (B). Reactions were performed for 10 min at 37° C. in a 200 μl reaction mixture containing lipid micelles (5 μM [^3H] PtdIns-4,5-P2, 20,000 cpm). Reactions were stopped by adding 1 ml of CHCl3:CH3OH:HCl (50:50:0.3, v/v/v). Inositol trisphosphates were extracted with 0.5 ml of 1 M HCl/5 mM EGTA, and the radioactivity in the upper aqueous phase was measured. Data are presented as means ±S. E. M. of three independent experiments (A, B).
(§2) PLC activity was assayed using [^3H] PtdIns-4,5-P2 as a substrate (Min et al., 1993). PtdIns-4,5-P2-hydrolyzing activity was measured with mixed phospholipid micelles containing 120 μM phosphatidylethanolamine, 30 μM PtdIns-4,5-P2, and 1 μCi/ml [^3H] PtdIns-4,5-P2. The lipids, in chloroform, were dried under a stream of nitrogen gas, suspended in assay buffer (20 mM HEPES pH 7.0, 120 mM NaCl, 2 mM MgCl2, 40 or 100 μM CaCl2, and 1 mg/ml bovine albumin serum (Bayer, Leverkusen, Germany)), and sonicated. All proteins added to the reaction mixture were dialyzed overnight against the assay buffer. Incubation was performed for 10 min at 37° C. in a 200 μl reaction mixture containing lipid micelles (5 μM [3H] PtdIns-4,5-P2, 20,000 cpm). The reaction was stopped by adding 2 ml of CHCl3: CH3OH: HCl (50: 50: 0.3, v/v/v). The inositol triphosphates were extracted with 0.5 ml of 1 N HCl, and radioactivities in the upper aqueous phase were measured.

[2] = molecular target: T2, PLC γ2 (Homo sapiens, UniProt P16885); experiment: Phosphoinositide hydrolysis in vitro; format: biochemical; details: 25 μM; purified isozyme
T2 sequence (P16885 1-1265): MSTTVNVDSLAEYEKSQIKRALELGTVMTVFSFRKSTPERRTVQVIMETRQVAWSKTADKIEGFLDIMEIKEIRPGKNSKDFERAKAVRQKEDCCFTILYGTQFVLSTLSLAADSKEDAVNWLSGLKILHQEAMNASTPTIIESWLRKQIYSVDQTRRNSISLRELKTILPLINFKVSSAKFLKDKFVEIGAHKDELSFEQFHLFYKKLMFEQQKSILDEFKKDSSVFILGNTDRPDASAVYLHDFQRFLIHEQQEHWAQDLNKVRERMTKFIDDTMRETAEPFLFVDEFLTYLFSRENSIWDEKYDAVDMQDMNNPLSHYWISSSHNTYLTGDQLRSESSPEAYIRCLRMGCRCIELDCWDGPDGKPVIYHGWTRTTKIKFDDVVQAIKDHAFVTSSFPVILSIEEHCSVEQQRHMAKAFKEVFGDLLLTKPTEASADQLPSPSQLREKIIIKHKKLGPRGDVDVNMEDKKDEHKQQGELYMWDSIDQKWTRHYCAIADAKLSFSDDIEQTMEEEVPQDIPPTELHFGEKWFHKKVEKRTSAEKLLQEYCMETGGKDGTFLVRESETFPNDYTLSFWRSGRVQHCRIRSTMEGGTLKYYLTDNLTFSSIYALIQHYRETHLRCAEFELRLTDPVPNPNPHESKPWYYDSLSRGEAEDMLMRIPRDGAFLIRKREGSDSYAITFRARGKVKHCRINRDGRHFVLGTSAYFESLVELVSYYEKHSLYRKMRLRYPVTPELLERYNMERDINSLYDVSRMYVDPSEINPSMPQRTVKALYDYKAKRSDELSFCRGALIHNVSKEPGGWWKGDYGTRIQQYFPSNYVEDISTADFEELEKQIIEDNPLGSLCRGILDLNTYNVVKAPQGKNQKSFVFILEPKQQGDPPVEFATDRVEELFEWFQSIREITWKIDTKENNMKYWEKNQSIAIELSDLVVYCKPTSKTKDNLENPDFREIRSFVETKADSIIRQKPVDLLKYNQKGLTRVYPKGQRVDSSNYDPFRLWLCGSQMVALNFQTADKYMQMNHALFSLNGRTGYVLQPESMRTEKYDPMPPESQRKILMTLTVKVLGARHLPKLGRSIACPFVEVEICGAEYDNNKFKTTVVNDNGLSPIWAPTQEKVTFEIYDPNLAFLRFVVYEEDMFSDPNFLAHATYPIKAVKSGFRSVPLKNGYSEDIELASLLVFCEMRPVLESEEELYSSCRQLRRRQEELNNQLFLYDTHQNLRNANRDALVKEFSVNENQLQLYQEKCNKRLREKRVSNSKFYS
Method: as §1, §2

Structure (SMILES) | activity of PLC delta1 [1] | activity of PLC gamma2 [2]
Cc1cc(C)c(S(=O)(=O)Nc2cccc(C(F)(F)F)c2)c(C)c1 [m-3M3FBS, 2,4,6-Trimethyl-N-(meta 3-trifluoromethyl-phenyl)-benzenesulfonamide] | augmented the activity | augmented the activity
Cc1cc(C)c(S(=O)(=O)Nc2ccccc2C(F)(F)F)c(C)c1 [o-3M3FBS, 2,4,6-Trimethyl-N-(ortho 3-trifluoromethyl-phenyl)-benzenesulfonamide, reference compound] | did not affect | did not affect

From US20040220268A1, “Compound that directly stimulates phospholipase C activity” (priority 2003, published 2004)
